The text below walks through data of US8946265B2, “Process for the preparation of lenalidomide” (Generics [UK] Limited, priority 2009, dated 2015).

Molecules are shown by their SMILES. Where two headings read alike, the source gives them in different places.

A short description of data set [1]: Thermodynamic stability and interconversion of polymorphs. The class given is physicochemical.
Data set [2] can be described thus: Hygroscopicity of the crystalline form. Format: physicochemical. Conditions: solid crystalline form.

As for `Nc1cccc2c1CN(C1CCC(=O)NC1=O)C2=O` (centres unmarked) [form B, 3-(4-amino-1-oxo-1,3-dihydro-isoindol-2-yl)-piperidine-2,6-dione], in data set [1] (conditions of heating), the “polymorphic conversion under heating” value is reported as “convert to form A”.
For the molecule `Nc1cccc2c1CN(C1CCC(=O)NC1=O)C2=O` (centres unmarked) [lenalidomide crystalline form A, 3-(4-amino-1-oxo-1,3-dihydro-isoindol-2-yl)-piperidine-2,6-dione], the hygroscopicity result in data set [2] is reported as “non-hygroscopic”. Further, the entries for the “thermodynamic stability relative to other polymorphs” value in data set [1] and in data set [1] (listed as form A) were “most thermodynamically stable anhydrous polymorph” and “most thermodynamically stable form”, respectively. Moreover, in data set [1] (aqueous solvent systems), the “polymorphic conversion in aqueous solvent systems” value was “convert to form B”.
